In patent publication US8586755B2, “Substituted nicotinamides as KCNQ2/3 modulators” (Grünenthal GmbH, priority 2009, dated 2013):

Molecular target: T1, KCNQ2/3 channels (Homo sapiens, UniProt O43525+O43526)
T1 construct: expressed in transfected cells
Experiment: Fluorescence assay using a voltage sensitive dye (fluorimetry)
Assay type: cell-based
Settings: CHO-K1 cells expressing KCNQ2/3 channels; for EC50: agonistic activity; for Fluorimetry % efficacy (retigabine 50 μM = 100%) / Emax: retigabine 50 μM = 100%; for Emax: read-out: Fluorimetry % efficacy (retigabine 50 μM = 100%)
Description: Pharmacological Experiments Fluorescence Assay Using a Voltage Sensitive Dye
Human CHO-K1 cells expressing KCNQ2/3 channels are cultivated adherently at 37° C., 5% CO2 and 95% humidity in cell culture bottles (e.g. 80 cm^2 TC flasks, Nunc) with DMEM-high glucose (Sigma Aldrich, D7777) including 10% FCS (PAN Biotech, e.g. 3302-P270521) or alternatively MEM Alpha Medium (1×, liquid, Invitrogen, #22571), 10% fetal calf serum (FCS) (Invitrogen, #10270-106, heat-inactivated) and the necessary selection antibiotics.
Before being sown out for the measurements, the cells are washed with a 1×DPBS buffer without Ca^2+/Mg^2+ (e.g. Invitrogen, #14190-094) and detached from the bottom of the culture vessel by means of Accutase (PAA Laboratories, #L11-007) (incubation with Accutase for 15 min at 37° C.). The cell count then present is determined using a CASY™ cell counter (TCC model, Schärfe System) in order subsequently to apply, depending on the density optimization for the individual cell line, 20,000-30,000 cells/well/100 μl of the described nutrient medium to 96-well measuring plates of the Corning™ CellBIND™ type (Flat Clear Bottom Black Polystyrene Microplates, #3340). Incubation is then carried out for one hour at room temperature, without gassing or adjusting the humidity, followed by incubation for 24 hours at 37° C., 5% CO2 and 95% humidity.
The voltage-sensitive fluorescent dye from the Membrane Potential Assay Kit (Red™ Bulk format part R8123 for FLIPR, MDS Analytical Technologies™) is prepared by dissolving the contents of a vessel Membrane Potential Assay Kit Red Component A in 200 ml of extracellular buffer (ES buffer, 120 mM NaCl, 1 mM KCl, 10 mM HEPES, 2 mM CaCl2, 2 mM MgCl2, 10 mM glucose; pH 7.4). After removal of the nutrient medium, the cells are washed with 200 μl of ES buffer, then covered with a layer of 100 μl of the dye solution prepared above and incubated for 45 min at room temperature with the exclusion of light.
The fluorescence measurements are carried out with a BMG Labtech FLUOstar™ BMG Labtech NOVOstar™ or BMG Labtech POLARstar™ instrument (525 nm excitation, 560 nm emission, Bottom Read mode). After incubation of the dye, 50 μl of the test substances in the desired concentrations, or 50 μl of ES buffer for control purposes, are introduced into separate cavities of the measuring plate and incubated for 30 min at room temperature while being shielded from light. The fluorescence intensity of the dye is then measured for 5 min and the fluorescence value F1 of each well is thus determined at a given, constant time. 15 μl of a […] KCl solution ([…]) are then added to each well. The change in fluorescence is subsequently measured until all the relevant measured values have been obtained (mainly 5-30 min). At a given time after KCl application, a fluorescence value F2 is determined, in this case at the time of the fluorescence peak.
For calculation, the fluorescence intensity F2 is compared with the fluorescence intensity F1, and the agonistic activity of the target compound on the potassium channel is determined therefrom. F2 and F1 are calculated as follows: […]
In order to determine whether a substance has agonistic activity,
A substance has an agonistic activity on the potassium channel when
[formula] it is possible to conclude that a target compound has agonistic activity if an increase in
[formula] is to be observed as the dosage of the target compound increases.
Calculations of EC50 values are carried out with the aid of ‘Prism v4.0’ software (GraphPad Software™).

EC50	Fluorimetry % efficacy (retigabine 50 μM = 100%)	Emax	SMILES
0.17 µM	132%		O=C(NCc1cccs1)c1cccnc1SCCCc1ccccc1 [compound 1]
1.35 µM		97%	O=C(NCc1cccs1)c1cccnc1SCCCC1CCCCC1 [compound 2, 2-(3-Cyclohexyl-propylsulfanyl)-N-(thiophen-2-yl-methyl)-pyridine-3-carboxylic acid amide]
	53%		O=C(CCSc1ncccc1C(=O)NCc1cccs1)c1ccccc1 [compound 3]
0.772 µM		126%	O=C(NCc1cccs1)c1cccnc1SCCOc1cccc(C(F)(F)F)c1 [compound 4, N-(Thiophen-2-yl-methyl)-2-[2-[3-(trifluoromethyl)-phenoxy]-ethylsulfanyl]-pyridine-3-carboxylic acid amide]
0.435 µM		161%	CC(C)CCCSc1ncccc1C(=O)NCc1cccs1 [compound 5, 2-(4-Methyl-pentylsulfanyl)-N-(thiophen-2-yl-methyl)-pyridine-3-carboxylic acid amide]
		91%	O=C(NCc1cccs1)c1cccnc1CCCCc1ccccc1 [compound 7, 2-(4-Phenyl-butyl)-N-(thiophen-2-yl-methyl)-pyridine-3-carboxylic acid amide]
		37%	O=C(NCC1CCCCC1)c1cccnc1CCCS(=O)(=O)c1ccccc1 [compound 8, 2-[3-(Benzenesulfonyl)-propyl]-N-(cyclohexyl-methyl)-pyridine-3-carboxylic acid amide]
1.35 µM		157%	O=C(NCC1CCCCC1)c1cccnc1CCCCc1ccccc1 [compound 9, N-(Cyclohexyl-methyl)-2-(4-phenyl-butyl)-pyridine-3-carboxylic acid amide]
		13%	O=C(NCc1cccs1)c1cccnc1CCCS(=O)(=O)c1ccccc1 [compound 10, 2-[3-(Benzenesulfonyl)-propyl]-N-(thiophen-2-yl-methyl)-pyridine-3-carboxylic acid amide]
2.92 µM		170%	O=C(NCc1cccs1)c1cccnc1CCCS(=O)(=O)c1cccc(C(F)(F)F)c1 [compound 12, N-(Thiophen-2-yl-methyl)-2-[3-[[3-(trifluoromethyl)phenyl]sulfonyl]-propyl]-pyridine-3-carboxylic acid amide]
0.302 µM	200%		O=C(NCc1cccs1)c1cccnc1CCCSc1cccc(C(F)(F)F)c1 [compound 13]
0.074 µM		176%	CC(CSc1ncccc1C(=O)NCc1cccs1)Sc1ccccc1 (centres unmarked) [compound 16]
0.128 µM	176%		O=C(NCc1cccs1)c1cccnc1SCCCc1ccc(F)cc1 [compound 17]
0.111 µM		160%	O=C(NCc1cccs1)c1cccnc1SCCCc1cccc(C(F)(F)F)c1 [compound 18, N-(Thiophen-2-yl-methyl)-2-[3-[3-(trifluoromethyl)phenyl]-propylsulfanyl]-pyridine-3-carboxylic acid amide]
0.037 µM		171%	CC(CSc1ncccc1C(=O)NCc1cccs1)Sc1ccc(F)cc1 (centres unmarked) [compound 19, 2-[2-[(4-Fluorophenyl)sulfanyl]-propylsulfanyl]-N-(thiophen-2-yl-methyl)-pyridine-3-carboxylic acid amide]
0.049 µM		174%	CC(CSc1ncccc1C(=O)NCc1cccs1)Sc1cccc(C(F)(F)F)c1 (centres unmarked) [compound 20, N-(Thiophen-2-yl-methyl)-2-[2-[[3-(trifluoromethyl)phenyl]sulfanyl]-propylsulfanyl]-pyridine-3-carboxylic acid amide]
0.364 µM	126%		O=C(NCc1cccs1)c1cccnc1CCCCc1cccc(C(F)(F)F)c1 [compound 21]
2.35 µM		150%	O=C(NCc1cccs1)c1cccnc1CCCCc1ccc(F)cc1 [compound 22, 2-[4-(4-Fluorophenyl)-butyl]-N-(thiophen-2-yl-methyl)-pyridine-3-carboxylic acid amide]
3.77 µM		163%	O=C(NCc1cccs1)c1cccnc1CCCSc1ccccc1 [compound 23, 2-(3-Phenylsulfanyl-propyl)-N-(thiophen-2-yl-methyl)-pyridine-3-carboxylic acid amide]
0.011 µM		122%	CC(CSc1ccccc1)Sc1ncccc1C(=O)NCc1cccs1 (centres unmarked) [compound 24, 2-[(1-Methyl-2-phenylsulfanyl-ethyl)sulfanyl]-N-(thiophen-2-yl-methyl)-pyridine-3-carboxylic acid amide]
1.02 µM		216%	O=C(NCC1CCCCCC1)c1cccnc1CCCCc1cccc(C(F)(F)F)c1 [compound 25, N-(Cycloheptyl-methyl)-2-[4-[3-(trifluoromethyl)phenyl]-butyl]-pyridine-3-carboxylic acid amide]
0.126 µM		244%	O=C(NCC1CC2CCC1C2)c1cccnc1CCCCc1cccc(C(F)(F)F)c1 (centres unmarked) [compound 26, N-(5-Bicyclo[2.2.1]heptanyl-methyl)-2-[4-[3-(trifluoromethyl)phenyl]-butyl]-pyridine-3-carboxylic acid amide]
1.57 µM		192%	CC(C)CCCSc1ncccc1C(=O)NCC1CC2CCC1C2 (centres unmarked) [compound 28, N-(5-Bicyclo[2.2.1]heptanyl-methyl)-2-(4-methyl-pentylsulfanyl)-pyridine-3-carboxylic acid amide]
0.275 µM		159%	O=C(NCC1CCCCCC1)c1cccnc1CCCSc1ccc(F)cc1 [compound 29, N-(Cycloheptyl-methyl)-2-[3-[(4-fluorophenyl)sulfanyl]-propyl]-pyridine-3-carboxylic acid amide]
0.63 µM		261%	O=C(NCC1CC2CCC1C2)c1cccnc1CCCSc1ccc(F)cc1 (centres unmarked) [compound 30, N-(5-Bicyclo[2.2.1]heptanyl-methyl)-2-[3-[(4-fluorophenyl)sulfanyl]-propyl]-pyridine-3-carboxylic acid amide]
0.437 µM		98%	O=C(NCC1CCCCCC1)c1cccnc1CCCS(=O)(=O)c1cccc(C(F)(F)F)c1 [compound 31, N-(Cycloheptyl-methyl)-2-[3-[[3-(trifluoromethyl)phenyl]sulfonyl]-propyl]-pyridine-3-carboxylic acid amide]
3.13 µM		191%	O=C(NCC1CC2CCC1C2)c1cccnc1CCCS(=O)(=O)c1cccc(C(F)(F)F)c1 (centres unmarked) [compound 32, N-(5-Bicyclo[2.2.1]heptanyl-methyl)-2-[3-[[3-(trifluoromethyl)phenyl]sulfonyl]-propyl]-pyridine-3-carboxylic acid amide]
0.451 µM		242%	O=C(NCC1CC2CCC1C2)c1cccnc1SCCCc1ccccc1 (centres unmarked) [compound 33, N-(5-Bicyclo[2.2.1]heptanyl-methyl)-2-(3-phenyl-propylsulfanyl)-pyridine-3-carboxylic acid amide]
0.463 µM		204%	O=C(NCC1CC2CCC1C2)c1cccnc1SCCCc1ccc(C(F)(F)F)cc1 (centres unmarked) [compound 34, N-(5-Bicyclo[2.2.1]heptanyl-methyl)-2-[3-[4-(trifluoromethyl)-phenyl]-propylsulfanyl]-pyridine-3-carboxylic acid amide]
0.242 µM		221%	O=C(NCC1CC2CCC1C2)c1cccnc1SCCCc1ccc(Cl)cc1 (centres unmarked) [compound 35, N-(5-Bicyclo[2.2.1]heptanyl-methyl)-2-[3-(4-chlorophenyl)-propylsulfanyl]-pyridine-3-carboxylic acid amide]
